pIC50: −log10 of the molar value.
molecular target: recombinant human NSD2 (Homo sapiens (Human), UniProt O96028); test: NSD2 inhibitory activity, modified RBC HotSpot HMT Assay (radiometric, 3H-SAM, oligonucleosome substrate); format: biochemical; conditions: recombinant human NSD2 2 nM, oligonucleosomes from Chicken 0.05 mg/ml, 3H-SAM 1 μM, 1 hour at 30° C.
Description: Exemplary compounds were tested for NSD2 inhibitory activity using a modified RBC HotSpot HMT Assay.
A reaction mixture was prepared by adding oligonucleosomes from Chicken (0.05 mg/ml) to freshly prepared reaction buffer containing 50 mM Tris-HCl (pH 8.5), 50 mM NaCl, 5 mM MgCl2, 0.01% Brij35, 1 mM DTT, and 1% DMSO followed by the addition of recombinant human NSD2, (amino acids 2-end) with N-terminal His tag (2 nM; GenBank Accession No. NM_001042424; MW=155.5 kDa; expressed in Sf9 insect cells) and gentle mixing. The test compounds were diluted in DMSO, added to the reaction mixture in nanoliter amounts by using Acoustic Technology (Echo 550, LabCyte Inc. Sunnyvale, CA) and incubated for 20 minutes at room temperature. The reaction was initiated by the addition of S-Adenosyl-L-[methyl-^3H] methionine (3H-SAM; 1 μM), and the mixture was incubated for 1 hour at 30° C. The reaction mixture was delivered to filter paper and the methylated substrate was quantified by scintillation counting. Data analysis was performed using Excel and GraphPad Prism software for IC50 curve fits. For additional information on the histone methyltransferase assay, see, for example, Horiuchi K Y, et al., “Assay Development for Histone Methyltransferases,” Assay Drug Dev Technol. 2013 May; 11 (4): 227-36.

recombinant human NSD2, sequence (O96028 2-1365 limits assumed): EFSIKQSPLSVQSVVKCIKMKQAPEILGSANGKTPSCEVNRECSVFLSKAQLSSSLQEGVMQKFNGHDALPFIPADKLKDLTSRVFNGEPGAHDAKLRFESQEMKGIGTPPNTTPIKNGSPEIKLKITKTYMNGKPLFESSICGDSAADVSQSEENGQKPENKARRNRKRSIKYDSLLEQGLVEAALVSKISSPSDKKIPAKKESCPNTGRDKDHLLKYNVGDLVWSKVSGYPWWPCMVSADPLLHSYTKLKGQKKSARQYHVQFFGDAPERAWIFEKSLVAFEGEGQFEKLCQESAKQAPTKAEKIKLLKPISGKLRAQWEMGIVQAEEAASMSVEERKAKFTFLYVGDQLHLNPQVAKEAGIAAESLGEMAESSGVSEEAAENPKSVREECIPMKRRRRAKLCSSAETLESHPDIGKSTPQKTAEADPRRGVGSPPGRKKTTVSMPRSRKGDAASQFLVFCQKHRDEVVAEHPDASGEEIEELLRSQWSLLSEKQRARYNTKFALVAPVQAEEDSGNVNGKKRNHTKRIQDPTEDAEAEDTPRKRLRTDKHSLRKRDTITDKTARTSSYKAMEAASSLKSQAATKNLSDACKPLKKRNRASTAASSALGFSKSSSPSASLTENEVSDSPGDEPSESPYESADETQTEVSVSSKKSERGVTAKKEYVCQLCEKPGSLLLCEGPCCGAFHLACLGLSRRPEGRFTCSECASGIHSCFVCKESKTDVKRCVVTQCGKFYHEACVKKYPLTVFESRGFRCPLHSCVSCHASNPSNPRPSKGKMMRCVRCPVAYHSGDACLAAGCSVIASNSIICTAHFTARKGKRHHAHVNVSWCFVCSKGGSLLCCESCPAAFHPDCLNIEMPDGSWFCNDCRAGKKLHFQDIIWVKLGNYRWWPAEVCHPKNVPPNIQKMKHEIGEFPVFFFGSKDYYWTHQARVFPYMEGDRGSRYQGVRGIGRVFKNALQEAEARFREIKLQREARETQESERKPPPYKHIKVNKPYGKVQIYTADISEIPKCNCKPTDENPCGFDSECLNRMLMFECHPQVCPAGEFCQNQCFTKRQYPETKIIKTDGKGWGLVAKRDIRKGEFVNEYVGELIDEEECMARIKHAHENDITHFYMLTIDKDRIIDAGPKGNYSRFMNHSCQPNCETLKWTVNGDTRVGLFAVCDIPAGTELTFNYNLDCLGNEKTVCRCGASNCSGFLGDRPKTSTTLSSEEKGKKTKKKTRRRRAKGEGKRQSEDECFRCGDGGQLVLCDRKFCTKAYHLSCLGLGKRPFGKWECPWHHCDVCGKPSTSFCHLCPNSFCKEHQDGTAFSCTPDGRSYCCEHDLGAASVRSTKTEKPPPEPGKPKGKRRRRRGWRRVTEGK

Row | pIC50 | SMILES
1 | 6.00 to 7.00 | COc1cc(F)c(-c2cc(Cn3cnc4c(N)ncnc43)c(N3CCC[C@](N)([C@H](O)C(F)F)C3)nn2)cc1F [Compound I-6, (S)-1-((R)-3-amino-1-(4-((6-amino-9H-purin-9-yl)methyl)-6-(2,5-difluoro-4-methoxyphenyl)pyridazin-3-yl)piperidin-3-yl)-2,2-difluoroethan-1-ol]
2 | 7.00 to 8.00 | COc1cc(F)c(-c2nc(Cn3cnc4c(N)ncnc43)c(N3CCC[C@@](N)([C@H](O)C(F)F)C3)s2)cc1F [II-2]
3 | 6.00 to 7.00 | COc1cc(F)c(-c2ncc(N3CCC[C@](N)([C@H](O)C(F)F)C3)c(Cn3cnc4c(N)ncnc43)n2)cc1F [Compound I-1, (S)-1-((R)-3-amino-1-(4-((6-amino-9H-purin-9-yl)methyl)-2-(2,5-difluoro-4-methoxyphenyl)pyrimidin-5-yl)piperidin-3-yl)-2,2-difluoroethan-1-ol]
